From EPA's ToxRefDB 2

Experiments:
rat [1] = conditions: Combined chronic toxicity/carcinogenicity, fischer, Oral, Feed, dose end: 24 month, group: systemic
rabbit = conditions: Prenatal developmental toxicity study, new zealand white, Oral, Gavage/Intubation, dose end: 18 GD
rat [2] = conditions: Multigenerational reproductive toxicity study, fischer, Oral, Feed, dose end: 2 generation
mouse [3] = conditions: Subchronic oral toxicity in rodents, b6c3f1, Feed, dose end: 96 day, group: systemic, systemic / organ weight / liver / absolute + systemic / organ weight / liver / relative to body weight + systemic / organ weight / liver / …
dog = conditions: Chronic toxicity; beagle; Oral; Feed; dose end: 53 week; group: systemic; systemic / clinical chemistry / alkaline phosphatase (alp/alk) / alkaline phosphatase (alp/alk) + systemic / clinical chemistry / …
mouse [4] = conditions: Carcinogenicity, b6c3f1, Oral, Feed, dose end: 24 month, group: systemic
mouse [5] = conditions: Carcinogenicity, b6c3f1, Oral, Feed, dose end: 24 month, group: systemic; remark: listed apart in the source
rat [6] = conditions: Prenatal developmental toxicity study, sprague dawley, Oral, Gavage/Intubation, dose end: 15 GD
rat [7] = conditions: Multigenerational reproductive toxicity study, sprague dawley, Oral, Feed, dose end: 2 generation
rat [8] = conditions: Subchronic inhalation toxicity, other, Nose-Only, dose end: 90 day, group: systemic, systemic / pathology microscopic / nose / [other] + systemic / pathology microscopic / nose / degeneration + systemic / pathology …
rat [9] = conditions: Sub-acute dermal toxicity, other, Topical, dose end: 28 day, group: systemic
rat [10] = conditions: Multigenerational reproductive toxicity study, Sprague-Dawley, Oral, Feed, dose end: 1 generation
rat [11] = conditions: Subchronic oral toxicity in rodents, sprague dawley, Feed, dose end: 3 month, group: systemic
rat [12] = conditions: Prenatal developmental toxicity study, sprague dawley, Oral, Gavage/Intubation, dose end: 16 GD, group: maternal
rat [13] = conditions: Subchronic oral toxicity in rodents, wistar, Gavage/Intubation, dose end: 90 day, group: systemic
rat [14] = conditions: Subchronic dermal toxicity, sprague dawley, Topical, dose end: 14 week, group: systemic
rat [15] = conditions: Subchronic oral toxicity in rodents, wistar, Gavage/Intubation, dose end: 90 day, group: systemic; remark: listed apart in the source
[16] = systemic / in life observation / body weight / body weight gain + systemic / pathology microscopic / kidney / adenocarcinoma + systemic / …
[17] = group: developmental, developmental / developmental malformation / bone / misshapen
[18] = group: maternal, systemic / in life observation / body weight / body weight gain + systemic / organ weight / liver / absolute + systemic / organ weight / …
[19] = group: offspring, systemic / in life observation / body weight / offspring (pup) weight + systemic / pathology microscopic / liver / vacuolization
[20] = group: parental, systemic / organ weight / liver / absolute + systemic / organ weight / liver / relative to body weight
[21] = systemic / pathology microscopic / intestine small / hyperplasia + systemic / pathology microscopic / intestine small / hypertrophy + …
[22] = systemic / pathology gross / intestine small / discolored + systemic / pathology microscopic / intestine small / [other] + systemic / …
[23] = group: developmental, developmental / developmental malformation / bone / incomplete ossification + developmental / developmental malformation / bone / short …
[24] = group: maternal, systemic / in life observation / body weight / body weight + systemic / in life observation / body weight / body weight gain + systemic / in…
[25] = group: offspring, developmental / developmental malformation / trunk / umbilical hernia + developmental / offspring survival late / [other] / [other] + …
[26] = group: parental, systemic / in life observation / clinical signs / body cold to touch + systemic / in life observation / clinical signs / drooping eyelids (…
[27] = group: parental, systemic / pathology microscopic / thyroid gland / colloid content + systemic / pathology microscopic / thyroid gland / hypertrophy + …
[28] = group: reproductive, reproductive / reproductive performance / dystocia / dystocia + reproductive / reproductive performance / postimplantation loss / …
[29] = systemic / hematology / leukocyte (wbc) count differential / leukocyte (wbc) + systemic / hematology / neutrophils / neutrophils + systemic…
[30] = systemic / pathology microscopic / thyroid gland / altered colloid + systemic / pathology microscopic / thyroid gland / hypertrophy
[31] = group: offspring, systemic / in life observation / body weight / offspring (pup) weight + systemic / in life observation / clinical signs / reduced activity
[32] = group: parental, systemic / clinical chemistry / thyroid stimulating hormone (thyrotropin) (tsh) / thyroid stimulating hormone (=thyrotropin) (tsh) + …
[33] = group: parental, systemic / in life observation / clinical signs / nasal discharge + systemic / in life observation / body weight / body weight + systemic / …
[34] = group: reproductive, reproductive / offspring survival early / dead fetuses / dead fetuses + reproductive / offspring survival early / litter size / litter size…
[35] = group: reproductive, reproductive / reproductive performance / reproductive performance other / NOS + reproductive / reproductive performance / pregnancy index…
[36] = systemic / clinical chemistry / cholesterol / cholesterol + systemic / clinical chemistry / phosphorus / phosphorus + systemic / pathology …
[37] = systemic / in life observation / clinical signs / salivation + systemic / in life observation / food consumption / food consumption
[38] = systemic / in life observation / clinical signs / righting ability
[39] = systemic / in life observation / clinical signs / righting ability + systemic / in life observation / body weight / body weight + systemic…
[40] = systemic / pathology microscopic / bone marrow / hyperplasia
[41] = systemic / pathology microscopic / bone marrow / hyperplasia + systemic / hematology / mean corpuscular (cell) volume (mcv) / mean …
[42] = systemic / pathology microscopic / pharynx / lesion(s) (nos)

For `Clc1cccc(C(Cl)(Cl)Cl)n1` [Nitrapyrin], the LOAEL (rat [1]; systemic / in life observation / body weight / body weight gain) was 20 mg/kg/day, the LEL (rat [1]; systemic / in life observation / body weight / body weight gain + systemic / in life observation / body weight / body weight) was 20 mg/kg/day and the NEL (rat [1]; [16]) was 5 mg/kg/day. It also gave an NOAEL (rat [1]; [16]) of 5 mg/kg/day, an LEL (rabbit; [17]) of 30 mg/kg/day and an LOAEL (rabbit; [17]) of 30 mg/kg/day. For the same compound, the NEL (rabbit; [17]) was 10 mg/kg/day, the NOAEL (rabbit; [17]) was 10 mg/kg/day and the LEL (rabbit; [18]) was 30 mg/kg/day. For the same compound, the LOAEL (rabbit; [18]) was 30 mg/kg/day, the NEL (rabbit; [18]) was 10 mg/kg/day and the NOAEL (rabbit; [18]) was 10 mg/kg/day. The LOAEL (rat [2]; [19]) was 75 mg/kg/day, the NEL (rat [2]; [19]) was 20 mg/kg/day and the NOAEL (rat [2]; [19]) was 20 mg/kg/day. The LEL (rat [2]; group: offspring, systemic / in life observation / body weight / offspring (pup) weight + systemic / pathology microscopic / liver / vacuolization + systemic…) was 75 mg/kg/day, the NOAEL (rat [2]; group: parental, systemic / organ weight / kidney / absolute + systemic / organ weight / kidney / relative to body weight + systemic / in life observation / …) was 5 mg/kg/day and the LOAEL (rat [2]; group: parental, systemic / organ weight / kidney / absolute + systemic / organ weight / kidney / relative to body weight + systemic / organ weight / liver…) was 20 mg/kg/day. For the same compound, the LEL (rat [2]; [20]) was 5 mg/kg/day, the NEL (rat [2]; [20]) was less than 5 mg/kg/day and the LEL (mouse [3]) was 200 mg/kg/day. The LOAEL (mouse [3]) was 200 mg/kg/day, the NEL (mouse [3]) was less than 200 mg/kg/day and the NOAEL (mouse [3]) was less than 200 mg/kg/day. The LEL (dog) was 15 mg/kg/day, the LOAEL (dog) was 15 mg/kg/day and the NEL (dog) was 3 mg/kg/day. It also gave an NOAEL (dog) of 3 mg/kg/day, an LOAEL (mouse [4]; [21]) of 125 mg/kg/day and an NOAEL (mouse [4]; [21]) of less than 125 mg/kg/day. For the same compound, the NEL (mouse [4]; systemic / pathology microscopic / liver / hypertrophy + systemic / pathology microscopic / stomach / hyperkeratosis + systemic / pathology …) was 250 mg/kg/day, the LOAEL (mouse [5]; [22]) was 75 mg/kg/day and the NEL (mouse [5]; [22]) was 5 mg/kg/day. For the same compound, the NOAEL (mouse [5]; [22]) was 25 mg/kg/day, the LEL (mouse [5]; systemic / pathology microscopic / intestine small / [other] + systemic / pathology gross / intestine small / discolored + systemic / …) was 25 mg/kg/day and the LEL (rat [6]; [23]) was 120 mg/kg/day. It also gave an LOAEL (rat [6]; [23]) of 120 mg/kg/day, an NEL (rat [6]; [23]) of 50 mg/kg/day and an NOAEL (rat [6]; [23]) of 50 mg/kg/day. For the same compound, the LOAEL (rat [6]; [24]) was 120 mg/kg/day, the NEL (rat [6]; [24]) was 15 mg/kg/day and the NOAEL (rat [6]; [24]) was 50 mg/kg/day. The LEL (rat [6]; group: maternal, systemic / in life observation / body weight / body weight gain) was 50 mg/kg/day.

`Cc1ccc(S(=O)(=O)C(I)I)cc1` [Diiodomethyl 4-methylphenyl sulfone] showed an LOAEL (rat [7]; [25]) greater than 40 mg/kg/day, an NEL (rat [7]; [25]) of 2.5 mg/kg/day and an NOAEL (rat [7]; [25]) of no less than 40 mg/kg/day. It also gave an LEL (rat [7]; group: offspring, systemic / in life observation / body weight / offspring (pup) weight + developmental / offspring survival late / viability index / …) of 10 mg/kg/day, an LOAEL (rat [7]; [26]) greater than 40 mg/kg/day and an NOAEL (rat [7]; [26]) of no less than 40 mg/kg/day. It also gave an LEL (rat [7]; [27]) of 2.5 mg/kg/day, an NEL (rat [7]; [27]) of less than 2.5 mg/kg/day and an LEL (rat [7]; [28]) of 40 mg/kg/day. The LOAEL (rat [7]; [28]) was greater than 40 mg/kg/day, the NEL (rat [7]; [28]) was 10 mg/kg/day and the NOAEL (rat [7]; [28]) was no less than 40 mg/kg/day. The LEL (rat [8]) was 0.41 ppm, the LOAEL (rat [8]) was greater than 1.74 ppm and the NEL (rat [8]) was 0.0579 ppm. The NOAEL (rat [8]) was no less than 1.74 ppm, the LOAEL (rat [9]; [29]) was greater than 500 mg/kg/day and the NOAEL (rat [9]; [29]) was no less than 500 mg/kg/day. The LEL (rat [9]; [30]) was 20 mg/kg/day, the NEL (rat [9]; [30]) was less than 20 mg/kg/day and the LEL (rat [10]; [31]) was 80 mg/kg/day. It also gave an LOAEL (rat [10]; [31]) greater than 200 mg/kg/day, an NEL (rat [10]; [31]) of 20 mg/kg/day and an NOAEL (rat [10]; [31]) of no less than 200 mg/kg/day. The LOAEL (rat [10]; [32]) was greater than 200 mg/kg/day, the NOAEL (rat [10]; [32]) was no less than 200 mg/kg/day and the LEL (rat [10]; [33]) was 20 mg/kg/day. It also gave an NEL (rat [10]; [33]) of less than 20 mg/kg/day, an LEL (rat [10]; [34]) of 80 mg/kg/day and an NEL (rat [10]; [34]) of 20 mg/kg/day. For the same compound, the LOAEL (rat [10]; [35]) was greater than 200 mg/kg/day, the NOAEL (rat [10]; [35]) was no less than 200 mg/kg/day and the LOAEL (rat [11]; [36]) was 80 mg/kg/day. The NEL (rat [11]; [36]) was 5 mg/kg/day, the NOAEL (rat [11]; [36]) was 20 mg/kg/day and the LEL (rat [11]; systemic / in life observation / clinical signs / scabbing) was 20 mg/kg/day.

Work on `CCCCCCCCCCCCN(CCCN)CCCN` [1,3-Propanediamine, N-(3-aminopropyl)-N-dodecyl-] yielded an LEL (rat [12]; systemic / in life observation / clinical signs / salivation) of 50 mg/kg/day, an LOAEL (rat [12]; [37]) greater than 200 mg/kg/day and an NEL (rat [12]; [37]) of 25 mg/kg/day. It also gave an NOAEL (rat [12]; [37]) of no less than 200 mg/kg/day, an LEL (rat [13]; [38]) of 10 mg/kg/day and an LOAEL (rat [13]; [38]) of 10 mg/kg/day. For the same compound, the NEL (rat [13]; [39]) was 5 mg/kg/day, the NOAEL (rat [13]; [39]) was 5 mg/kg/day and the LOAEL (rat [14]; [40]) was 5 mg/kg/day. It also gave an NOAEL (rat [14]; [40]) of less than 5 mg/kg/day, an LEL (rat [14]; [41]) of 5 mg/kg/day and an NEL (rat [14]; [41]) of less than 5 mg/kg/day. The LOAEL (rat [15]; systemic / pathology microscopic / kidney / basophilia + systemic / pathology microscopic / kidney / dilatation) was 90 mg/kg/day, the LEL (rat [15]; [42]) was 5 mg/kg/day and the NEL (rat [15]; [42]) was less than 5 mg/kg/day.
